Series [1] concerns TPO-induced STAT3 phosphorylation. Put plainly: Ex vivo TPO-induced STAT3 phosphorylation in dosed patients (marker of JAK2 inhibition). Also noted: species or system human. Here is the method:
The systemic effects of Compound 1 have been studied in the auto-immune diseases RA and Ps. Inhibition of phosphorylation of STAT3 following stimulation with IL-6, a marker of AK1 inhibition, and TPO, a marker of JAK2 inhibition was measured in both studies. In patients with Ps doses of 100 mg QD, 200 mg QD, 200 mg BID, and 600 mg QD were studied.

A short description of series [2]: Quantitative autoradioluminography (QARL) of colon sections. It counts as in vitro ADME, human. Conditions: ex vivo, 100 and 1000 nM apical, 1 h. Here is the method: Intestinal tissue permeation studies were performed using a vertical Ussing diffusion chamber system (Harvard Apparatus, Holliston, Mass.) for healthy tissues. Frozen tissues were thawed to ambient temperature and rinsed with pre-warmed KRB buffer used for dose formulation before being gently placed on the apparatus. Permeation was carried out mucosal-to-serosal at 37° C. for 1 hour with test article in KRB buffer added to the mucosal side. The receiver side of Ussing chamber containing blank KRB buffer was stirred with air bubbles by an aerator. Due to the limited availability of the samples, UC tissues were mounted (mucosal side up) on one end of a polypropylene tube with both ends cut open, and serosal side placed on blank KRB buffer in a vial with a stirring bar. KRB containing the test article was added into the tube and thus the mucosal side of the tissue was exposed to test article during the incubation. After 1 hour incubation at 37° C., samples (100-500 μL) were taken from both donor and receiver side, and then transferred to a 1.5 mL tube for evaluating the permeation. […]
All response curves determined for image analysis calibration were generated using a weighted 1st degree, polynomial, linear equation (1/MDC/mm^2). […]
The LLOQ was determined as 3 times the mean background for each panel. […]

For series [3], the system named is IL-6 stimulated phosphorylation of STAT3 in PBMCs. Put plainly: IL-6 stimulated STAT3 phosphorylation in human PBMC. The series is classed as cell-based. The following applies: read-out: in vitro IC50 for suppression of IL-6 stimulated phosphorylation of STAT3 in PBMCs (JAK1 inhibition). On the procedure: Two different assays can be used to understand the functional activity of JAK1 inhibition. The first is a standard cell based assay and the other using whole blood. The former is conducted using human peripheral blood mononuclear cells (PBMC); briefly, the cells are stimulated with IL-6 to increase JAK1 activity, which is measured via phosphorylated STAT3. As increasing concentrations of Compound 1 are added, a corresponding decrease in phosphorylated STAT3 is observed. This assay is appropriate to assess JAK1 activity and/or the inhibitory activity of Compound 1 in samples that are devoid of serum proteins, e.g., feces samples.

Series [4] in a line: Circulating and colon tissue drug concentrations in mice, oral vs intracolonic. It counts as in vivo, mouse. The text has this:
Preclinical models of IBD were established in BALB/c mice by intracolonic injection of 2,4,6-trinitrobenzene sulfonic acid (TNBS) or 4-ethoxymethylene-2-phenyl-2-oxazolin-5-one (oxazolone) to trigger an immune response, as described below. Body weight, stool consistency and fecal blood were scored. Additional readouts included colon weight to length ratio and histological evaluation. Blood was collected for pharmacokinetic analysis.
In a further study, quantification of circulating and tissue drug concentrations clearly differentiated the local versus systemic JAK1 target inhibition. […] In contrast, localized Compound 1 delivery was characterized by minimal peak systemic concentrations of approximately 0.04 μM but sustained exposure ≥0.45 μM in the colon tissue, as shown in FIG. 11D. Therefore, strategic targeting or release of JAK1 inhibitors within the inflamed gastrointestinal tissue can potentially achieve improved benefit-risk profiles.

[5] abbreviates: localized intracolonic delivery (3 mg/kg).

Usually IC50 stands for the midpoint of a concentration-inhibition curve. Regarding `N#CCC1(n2cc(-c3ncnc4[nH]ccc34)cn2)CN(C2CCN(C(=O)c3ccnc(C(F)(F)F)c3F)CC2)C1` [Compound 1, {1-{1-[3-Fluoro-2-(trifluoromethyl)isonicotinoyl]piperidin-4-yl}-3-[4-(7H-pyrrolo[2,3-d]pyrimidin-4-yl)-1H-pyrazol-1-yl]azetidin-3-yl}acetonitrile], the “TPO induced pSTAT3 inhibition” value in series [1] (RA patients, 100 mg QD to 600 mg QD, Cycle 1 Day 15) is “general trend of increasing TPO induced pSTAT3 inhibition”. The “inhibition of pSTAT3 in response to TPO” value in series [1] (psoriasis patients, 100 mg QD, 200 mg QD, and 200 mg BID) was “no significant inhibition of pSTAT3”. For the same compound, the “penetration into colon tissue layers” value in series [2] is on record as “penetrated into the mucosal layer and, to a lesser extent, submucosal layer in a concentration dependent manner”. Also, the IC50 in series [3] came to 58 nM. Further, in series [4] (intracolonic doses), the “systemic drug exposure relative to JAK1 IC50” value was “below JAK1 IC50”. Also, in series [4] (setting [5]), the peak systemic concentrations result was “approximately 0.04 μM” and the “sustained exposure in the colon tissue” value was not below 0.45 µM. In addition, the “peak circulating drug level” value in series [4] (oral dosing (30 mg/kg)) is on record as “approximately 11 μM”.

The values are drawn from patent US11596632B2, “JAK1 pathway inhibitors for the treatment of gastrointestinal disease” (Incyte Corporation, priority 2018, dated 2023).
